Data on 3 compounds can be found in US9865819B2, “Nitrogen annulated perylene diimides for use as electron transport materials in organic electronic devices” (UTI Limited Partnership, priority 2016, dated 2018).

The nature of data set [1]: Solubility in CHCl3 by UV-vis absorbance calibration curve. Type of data set: physicochemical. The note with it: room temperature, 50 mg/mL samples stirred overnight, 0.45 μm filtered, diluted 2000x, Beer-Lambert; for solubility: CHCl3, organic solvent or mixture, thermodynamic from solid. The procedure:
FIG. 2 is a concentration vs absorption plot for determining the solubility of compounds (5) and (7) in CHCl3. A calibration curve was made for each compound by plotting absorbance values of known concentrations. (Dotted lines). In order to determine solubility, compounds (5) and (7) were made into solutions having 50 mg/mL concentration, allowed to stir overnight and then passed through a 0.45 μm syringe filter to remove any undissolved solids. The obtained solutions were then diluted by a factor of 2000 so that their absorbance was in the range of values used for the calibration curves. By using the Beer-Lambert law and the slope of the respective curves, it was determined that the solubility of both (5) and (7) was ˜50 mg/mL. This observation is confirmed by the apparent complete dissolution of 50 mg/mL samples of either (5) or (7) in CHCl3.
With the N annulated PDI derivatives (4), (5) and (7) in hand we set out to study their optical electronic and solubility characteristics. The N-annulated PDI materials bear an extra site for alkyl chain functionalization which was envisioned to modify the solubility and self-assembly characteristics of the materials with respect to the parent PDI compound (2). […] This assertion is supported by ^1H NMR evidence showing that the N—H proton becomes more deshielded upon increasing the solution concentration, typically observed for hydrogen bonding interactions (not shown). […] [54] Importantly, such high organic solvent solubility is achieved without the need for long branched alkyl chains attached to the imide N atoms, chains that are used for almost all reported multi-PDI based materials. Thus, one can envision a wide array of alkyl chains being installed to fine-tune molecular assembly in the solid state, following the so-called “side chain engineering” methodology.

Data set [2] in a line: Thermal stability by TGA analysis. Type of data set: physicochemical. The procedure: The melting points of compounds (4), (5), and (7) were also determined and provide support for the assertion that compound (4) experiences intermolecular hydrogen bonding interactions. […] Dimerization improves thermal stability.

In brackets after ≈: the same amount, converted by molar mass. Some results are limits rather than exact numbers.

Consider `CCC(CC)n1c(=O)c2ccc3c4ccc5c(=O)n(C(CC)CC)c(=O)c6cc7[nH]c8cc(c1=O)c2c3c8c7c4c56` [Compound 4, EP-NH-CAG-PDI], for which the melting point came to 235 °C. The solubility in data set [1] is less than 1 mg/mL.

As for `CCCCCCn1c2cc3c(=O)n(C(CC)CC)c(=O)c4ccc5c6ccc7c(=O)n(C(CC)CC)c(=O)c8cc1c(c6c78)c2c5c43` [Compound 5, EP-N-Hex-CAG-PDI], in data set [1], the solubility was greater than 50 mg/mL and the “solubility in CHCl3” value is given as roughly 50 mg/mL (≈ 79.6 mM).

Consider `CCCCCCn1c2cc3c(=O)n(C(CC)CC)c(=O)c4ccc5c6c(-c7cc8c(=O)n(C(CC)CC)c(=O)c9cc%10c%11c(c7c7ccc%12c(=O)n(C(CC)CC)c(=O)c%13cc(c%11c7c%12%13)n%10CCCCCC)c89)cc7c(=O)n(C(CC)CC)c(=O)c8cc1c(c6c78)c2c5c43` [Compound 7, BAY-EP-N-Hex-CAG-PDI], for which, in data set [2], the “thermally stable up to / decomposition temperature (TGA)” value was roughly 425 °C. In addition, in data set [1], the solubility was greater than 50 mg/mL and the “solubility in CHCl3” value is roughly 50 mg/mL (≈ 39.9 mM).

In general, melting point refers to the temperature, or range, at which the solid turns liquid. A word on the solubility: it is the dissolved amount per volume that the medium holds.
